Read-outs that look alike come from different tables or passages of the source.
Key:
[1] = oral administration of tetrabenazine, four patients affected by tardive dyskinesia; cited from earlier work
[2] = oral administration of tetrabenazine, patients treated for involuntary movement disorders; cited from earlier work
[3] = rats, administration of tetrabenazine or dihydrotetrabenazine; stereochemistry not disclosed; cited from earlier work
amphetamine-induced rats = assay: Amphetamine-induced locomotor activity and stereotypic behaviour, open field arena (Example 2, Studies 1, 2, 4); type: in vivo, rat; conditions: for normalised total stereotypic behaviour, compared to vehicle-amphetamine group / total distance travelled, compared to vehicle-amphetamine group: amphetamine at t=30 min; for locomotor activity compared to the vehicle-amphetamine group (conclusion) / stereotypic behaviour compared to the vehicle-amphetamine group (conclusion): risperidone 1 mg/kg
Description: Dopaminergic models for Tourette's syndrome use systemic or focal administration of dopamine agonists such as amphetamine. After injection with amphetamine, a test animal expresses stereotypic behaviour. In particular, involvement of a dopaminergic system implicated in Tourette's syndrome wild type mice and rats can be stimulated with amphetamine and the resulting hyperactivity and stereotypies can be reversed with dopamine antagonists such as risperidone and haloperidol (Tourette's syndrome—Animal Models for Screening, Charles River Discovery Research Services, Finland).
(§1) All animal experiments were carried out according to the National Institute of Health (NIH) guidelines for the care and use of laboratory animals, and approved by the National Animal Experiment Board, Finland. Male CD (Charles River Laboratories, Germany) at weight range of 200-250 g (165-200 g upon arrival) were used for the experiments. Animals were housed at a standard temperature (22±1° C.) and in a light-controlled environment (lights on from 7 am to 8 pm) with ad libitum access to food and water.
(§2) Locomotor activity of the rats was tested in open field arena. The open field test was performed during the rat light cycle and under a normal lighting evenly distributed to the test chambers. The paths of the rats were recorded by activity monitor (Med. Associates Inc.).
(§3) Dosing the vehicle, vehicle-amphetamine, (+)-α-DHTBZ or risperidone was done prior to LMA test. The rats were placed in the centre of the arena, and the path was recorded for 60 minutes.
(§4) Animals were grouped as follows: • Group 1: 10 rats treated with Vehicle (t=0 min) and Vehicle (t=30 min) • Group 2: 10 rats treated with Vehicle (t=0 min) and Amphetamine (t=30 min) • Group 3: 10 rats treated with (+)-α-DHTBZ 0.5 mg/kg (t=0 min) and Amphetamine (t=30 min) • Group 4: 10 rats treated with (+)-α-DHTBZ 1 mg/kg (t=0 min) and Amphetamine (t=30 min) • Group 5: 10 rats treated with (+)-α-DHTBZ 1.5 mg/kg (t=0 min) and Amphetamine (t=30 min) • Group 6: 10 rats treated with (+)-α-DHTBZ 2 mg/kg (t=0 min) and Amphetamine (t=30 min) • Group 7: 10 rats treated with risperidone 1 mg/kg (t=0 min) and Amphetamine (t=30 min)
(§5) Rats dosed with either vehicle, (+)-α-DHTBZ 0.5 mg/kg, (+)-α-DHTBZ 1 mg/kg, (+)-α-DHTBZ 1.5 mg/kg, (+)-α-DHTBZ 2 mg/kg or Risperidone 1 mg/kg were subjected to LMA testing first for 30 min and then for 60 minutes after vehicle or amphetamine challenge. Resulting locomotor activity was evaluated in 3 min bins and as a total over the testing period.
as §5, with “stereotypic” for “locomotor”
Animals were grouped as follows: • Group 1: 10 rats treated with Vehicle (t=0 min) and Vehicle (t=30 min) • Group 2: 10 rats treated with Vehicle (t=0 min) and Amphetamine (t=30 min) • Group 3: 10 rats treated with (+)-α-DHTBZ 0.1 mg/kg (t=0 min) and Amphetamine (t=30 min) • Group 4: 10 rats treated with (+)-α-DHTBZ 0.25 mg/kg (t=0 min) and Amphetamine (t=30 min) • Group 5: 10 rats treated with risperidone 1 mg/kg (t=0 min) and Amphetamine (t=30 min)
as §4, with “(+)-α-DHTBZ 1” for “(+)-α-DHTBZ 0.5”, “(+)-α-DHTBZ 1.5” for “(+)-α-DHTBZ 1”, “with Valbenazine 1” for “with (+)-α-DHTBZ 1.5”, “with Valbenazine 1.5” for “with (+)-α-DHTBZ 2”

[4] = tested on: patients suffering from tardive dyskinesia; conditions: cited from earlier work
[5] = tested on: Tardive Dyskinesia sufferers; conditions: 80 mg/day; cited from earlier work
[6] = tested on: non-amphetamine induced rats; assay: Locomotor activity and stereotypic behaviour in non-amphetamine induced rats, open field arena (Example 2, Study 3); type: in vivo, rat; conditions: Study 3, non-induced rats; (+)-α-DHTBZ 2.5 mg/kg or 5 mg/kg, risperidone 1 mg/kg
Protocol: as §1, §2, §3
Animals were grouped as follows: • Group 1: 10 rats treated with Vehicle • Group 2: 10 rats treated with (+)-α-DHTBZ 2.5 mg/kg • Group 3: 10 rats treated with (+)-α-DHTBZ 5 mg/kg • Group 4: 10 rats treated with risperidone 1 mg/kg

[7] = Study 1, (+)-α-DHTBZ at all the tested doses (0.5, 1, 1.5, 2 mg/kg)

SMILES: COc1cc2c(cc1OC)C1CC(=O)C(CC(C)C)CN1CC2 (stereo not drawn) [tetrabenazine, 1,3,4,6,7,11b-hexahydro-9,10-dimethoxy-3-(2-methylpropyl)-2H-benzo(a)quinolizin-2-one]
- plasma concentrations [1]: low plasma concentrations
- plasma concentrations [2]: very low plasma concentrations

SMILES: COc1cc2c(cc1OC)C1CC(O)C(CC(C)C)CN1CC2 (stereo not drawn) [dihydrotetrabenazine, 2-hydroxy-3-(2-methylpropyl)-1,3,4,6,7,11b-hexahydro-9,10-dimethoxy-benzo(a)quinolizine]
- crossing of the blood-brain barrier [3]: able to cross the blood-brain barrier
- plasma concentrations [1]: relatively high concentrations

SMILES: COc1cc2c(cc1OC)[C@H]1C[C@@H](OC(=O)[C@@H](N)C(C)C)[C@H](CC(C)C)CN1CC2 [Valbenazine, reference compound]
- normalised total stereotypic behaviour, compared to vehicle-amphetamine group (amphetamine-induced rats; Study 4, 1 mg/kg): significantly different
- total distance travelled, compared to vehicle-amphetamine group (amphetamine-induced rats; Study 4, 1 mg/kg): significantly different
- normalised total stereotypic behaviour, compared to vehicle-amphetamine group (amphetamine-induced rats; Study 4, 1.5 mg/kg): significantly different
- total distance travelled, compared to vehicle-amphetamine group (amphetamine-induced rats; Study 4, 1.5 mg/kg): significantly different
- symptoms scored with the abnormal involuntary movement scale (AIMS) ([4]; 50 mg/day): did not show any significant signs of improvement
- symptoms scored with the abnormal involuntary movement scale (AIMS) ([4]; 100 mg/day): some reduction of symptoms
- Abnormal Involuntary Movement Score [5]: significant improvement

SMILES: Cc1nc2n(c(=O)c1CCN1CCC(c3noc4cc(F)ccc34)CC1)CCCC2 [risperidone, reference compound]
- normalised total stereotypic behaviour, compared to vehicle-amphetamine group (amphetamine-induced rats; Study 1, 1 mg/kg): significantly different
- locomotor activity compared to the vehicle-amphetamine group (conclusion) (amphetamine-induced rats; [7]): lower locomotor activity
- stereotypic behaviour compared to the vehicle-amphetamine group (conclusion) (amphetamine-induced rats; [7]): reduced stereotypic behaviour
- normalised total stereotypic behaviour, compared to vehicle-amphetamine group (amphetamine-induced rats; Study 2, 1 mg/kg): significantly different
- locomotor activity compared to the vehicle-amphetamine group (conclusion) (amphetamine-induced rats; Study 2, (+)-α-DHTBZ at 0.25 mg/kg): lower locomotor activity
- stereotypic behaviour compared to the vehicle-amphetamine group (conclusion) (amphetamine-induced rats; Study 2, (+)-α-DHTBZ at both the tested doses (0.1, 0.25 mg/kg)): reduced stereotypic behaviour
- normalised total stereotypic behaviour, compared to vehicle-amphetamine group (amphetamine-induced rats; Study 4, 1 mg/kg): significantly different
- total distance travelled, compared to vehicle-amphetamine group (amphetamine-induced rats; Study 4, 1 mg/kg): significantly different
- total movement compared to rats treated with the vehicle [6]: reduced total movement
- total stereotypic behaviour compared to rats treated with the vehicle [6]: reduced total stereotypic behaviour

— patent US20220211678A1, “USES OF (+)-A-DIHYDROTETRABENAZINE IN METHODS OF TREATING MOVEMENT DISORDER” (ADEPTIO PHARMACEUTICALS LIMITED, priority 2017, published 2022)
